Test system: (GR)10
Assay: Cleavage of (GR)10 by enzymes in solution (PBS with CaCl2 and MgCl2), LC/MS of GR repeats
Format: biochemical
Conditions: for (GR)1 concentration / (GR)2 concentration / (GR)4 concentration / (GR)6 concentration / (GR)8 concentration / (GR)10 concentration: (GR)10 50 μM; for (GR)1 / (GR)2 / (GR)3 / (GR)4 / (GR)5 / (GR)6 / (GR)8 / (GR)10: PBS, normalized
Method: • (GR)10 dipeptide (also (GR)8, (GR)6, (GR)4, (GR)2) were synthetized by solid-phase synthesis by CanPeptide; All peptides are uncapped and supplied lyophilized with TFA as counter ions. Purity was always above 95%. • Buffer: PBS buffer containing CaCl2 and MgCl2. • Stock solution of enzyme (e.g., 10 mg/mL) (prepared per manufacturer instructions) in PBS. Activators added as necessary. • Working solution of protein of the desired concentration (e.g., 100 μg/mL) prepared immediately before use by diluting the stock solution (e.g., 5 μL of 10 mg/mL stock solution) in PBS buffer (e.g., in 495 μL of PBS). Exemplary Procedure Using 50 μM Concentrations of (GR)10
25 μL of a 100 μM solution of (GR)10 was added to each well of a 96-well plate. 25 μL of a solution of enzyme (two times the desired final enzyme concentration) was added, and the plates were incubated at room temperature. At the specified time points (5 minutes, 10 minutes, 30 minutes, 60 minutes, and 180 minutes) 2.5 μL of a 10% TFA solution were added to stop the reaction. For the time 0 min well, the TFA was added to the well before addition of the enzyme. After last time point, all samples were further diluted with 150 μL of dilution solution. The quenched reaction mixtures were analyzed by LC/MS to determine the concentration of GR repeats of different lengths.
The chromatography and mass spectrometry conditions utilized are shown in Table 2 and Table 3, respectively.

## Elastase: protease that cleaves at the carboxyl side of small hydrophobic amino acids; in Table 22 also immobilized on agarose resin
Enzyme 2.5 μg/mL, 0 min
  (GR)1 concentration: BLQ
  (GR)2 concentration: BLQ
  (GR)4 concentration: BLQ
  (GR)6 concentration: BLQ
  (GR)8 concentration: BLQ
  (GR)10 concentration: 53.8 µM
Enzyme 2.5 μg/mL, 5 min
  (GR)1 concentration: 0.2 µM
  (GR)2 concentration: 0.2 µM
  (GR)4 concentration: BLQ
  (GR)6 concentration: BLQ
  (GR)8 concentration: 0.3 µM
  (GR)10 concentration: 52.6 µM
Enzyme 2.5 μg/mL, 10 min
  (GR)1 concentration: 0.3 µM
  (GR)2 concentration: 0.2 µM
  (GR)4 concentration: 0.2 µM
  (GR)6 concentration: BLQ
  (GR)8 concentration: 0.6 µM
  (GR)10 concentration: 52.5 µM
Enzyme 2.5 μg/mL, 30 min
  (GR)1 concentration: 1.3 µM
  (GR)2 concentration: 0.8 µM
  (GR)4 concentration: 0.7 µM
  (GR)6 concentration: 0.7 µM
  (GR)8 concentration: 0.6 µM
  (GR)10 concentration: 43.6 µM
Enzyme 2.5 μg/mL, 60 min
  (GR)1 concentration: 2.3 µM
  (GR)2 concentration: 1.4 µM
  (GR)4 concentration: 1.4 µM
  (GR)6 concentration: 1.0 µM
  (GR)8 concentration: 1.6 µM
  (GR)10 concentration: 35.3 µM
Enzyme 2.5 μg/mL, 120 min
  (GR)1 concentration: 4.3 µM
  (GR)2 concentration: 2.1 µM
  (GR)4 concentration: 2.3 µM
  (GR)6 concentration: 1.5 µM
  (GR)8 concentration: 2.5 µM
  (GR)10 concentration: 24.9 µM
Enzyme 10 μg/mL, 0 min
  (GR)1 concentration: BLQ
  (GR)2 concentration: BLQ
  (GR)4 concentration: BLQ
  (GR)6 concentration: BLQ
  (GR)8 concentration: BLQ
  (GR)10 concentration: 41.6 µM
Enzyme 10 μg/mL, 5 min
  (GR)1 concentration: 0.8 µM
  (GR)2 concentration: 0.5 µM
  (GR)4 concentration: 0.5 µM
  (GR)6 concentration: 0.4 µM
  (GR)8 concentration: 0.9 µM
  (GR)10 concentration: 50.5 µM
Enzyme 10 μg/mL, 10 min
  (GR)1 concentration: 1.4 µM
  (GR)2 concentration: 0.8 µM
  (GR)4 concentration: 0.7 µM
  (GR)6 concentration: 0.8 µM
  (GR)8 concentration: 0.9 µM
  (GR)10 concentration: 37.8 µM
Enzyme 10 μg/mL, 30 min
  (GR)1 concentration: 5.1 µM
  (GR)2 concentration: 2.5 µM
  (GR)4 concentration: 2.2 µM
  (GR)6 concentration: 1.6 µM
  (GR)8 concentration: 2.8 µM
  (GR)10 concentration: 21.1 µM
Enzyme 10 μg/mL, 60 min
  (GR)1 concentration: 8.3 µM
  (GR)2 concentration: 3.7 µM
  (GR)4 concentration: 2.8 µM
  (GR)6 concentration: 2.2 µM
  (GR)8 concentration: 3.3 µM
  (GR)10 concentration: 12.2 µM
Enzyme 10 μg/mL, 120 min
  (GR)1 concentration: 15.1 µM
  (GR)2 concentration: 6.3 µM
  (GR)4 concentration: 3.2 µM
  (GR)6 concentration: 2.0 µM
  (GR)8 concentration: 1.3 µM
  (GR)10 concentration: 2.4 µM
In solution - 5 min reaction
  (GR)1: 1.4 µM
  (GR)2: 2.9 µM
  (GR)3: 2.1 µM
  (GR)4: 3.1 µM
  (GR)5: 2.3 µM
  (GR)6: 4.4 µM
  (GR)8: 6.8 µM
  (GR)10: 213.3 µM
In solution - 60 min reaction
  (GR)1: 5.4 µM
  (GR)2: 12.8 µM
  (GR)3: 8.5 µM
  (GR)4: 8.8 µM
  (GR)5: 6.0 µM
  (GR)6: 9 µM
  (GR)8: 12.8 µM
  (GR)10: 21.6 µM

Source: patent US11419921B2, “Methods of treating neurological disorders” (EnClear Therapies, Inc., priority 2018, dated 2022)
